Experimental data from the supplement of paper PMC4932681.

What was measured:
ZR-75-1 Tam2 [1] = test: drug sensitivity score (DSS) (DSS (dimensionless)); higher = more sensitive; extreme values may be limits of the assay; settings: 4-OH-tamoxifen in medium 1 µM; 72 h
Method in brief: (§1)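 Breast cancer cell lines and their resistant derivatives were seeded into 384-well plates containing library drugs at five concentrations across a 10 000-fold range, with resistant lines kept in medium with 1 μM of the selecting drug. After 72 h at 37 °C, CellTiter-Glo viability was read on a PHERAstar and normalised to vehicle-only and positive controls. Logistic dose–response fits in the Breeze pipeline gave drug sensitivity score, relative IC50 (curve midpoint) and top-dose inhibition.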

BT-474 Tam2 [2] = test: as above; settings: 4-OH-tamoxifen in medium 1 µM; 72 h
Method in brief: as §1

BT-474 [3] = test: as above; settings: 72 h
Method in brief: as §1

BT-474 Tam1 [4] = test: as above; settings: 4-OH-tamoxifen in medium 1 µM; 72 h
Method in brief: as §1

T-47D [5] = test: as above; settings: 72 h
Method in brief: as §1

MCF-7 [6] = test: as above; settings: 72 h
Method in brief: as §1

T-47D Tam1 [7] = test: as above; settings: 4-OH-tamoxifen in medium 1 µM; 72 h
Method in brief: as §1

MCF-7 Tam1 = test: as above; settings: 4-OH-tamoxifen in medium 1 µM; 72 h
Method in brief: as §1

ZR-75-1 Tam1 [8] = test: as above; settings: 4-OH-tamoxifen in medium 1 µM; 72 h
Method in brief: as §1

T-47D Tam2 [9] = test: as above; settings: 4-OH-tamoxifen in medium 1 µM; 72 h
Method in brief: as §1

ZR-75-1 [10] = test: as above; settings: 72 h
Method in brief: as §1

ZR-75-1 Tam2 [11] = test: relative IC50 (midpoint of fitted logistic curve, plateau may be below 50% inhibition; CellTiter-Glo viability); higher = less potent; settings: 4-OH-tamoxifen in medium 1 µM; 72 h
Method in brief: as §1

BT-474 Tam2 [12] = test: as above; settings: 4-OH-tamoxifen in medium 1 µM; 72 h
Method in brief: as §1

BT-474 [13] = test: as above; settings: 72 h
Method in brief: as §1

BT-474 Tam1 [14] = test: as above; settings: 4-OH-tamoxifen in medium 1 µM; 72 h
Method in brief: as §1

T-47D [15] = test: as above; settings: 72 h
Method in brief: as §1

MCF-7 [16] = test: as above; settings: 72 h
Method in brief: as §1

T-47D Tam1 [17] = test: as above; settings: 4-OH-tamoxifen in medium 1 µM; 72 h
Method in brief: as §1

ZR-75-1 Tam1 [18] = test: as above; settings: 4-OH-tamoxifen in medium 1 µM; 72 h
Method in brief: as §1

T-47D Tam2 [19] = test: as above; settings: 4-OH-tamoxifen in medium 1 µM; 72 h
Method in brief: as §1

ZR-75-1 [20] = test: as above; settings: 72 h
Method in brief: as §1

SMILES	relative IC50 (BT-474 Tam2 [12]) [µM]	relative IC50 (BT-474 [13]; 4-OH-tamoxifen in medium 0 µM) [µM]	relative IC50 (BT-474 [13]; 4-OH-tamoxifen in medium 1 µM) [µM]	relative IC50 (BT-474 Tam1 [14]) [µM]	relative IC50 (T-47D [15]; 4-OH-tamoxifen in medium 0 µM) [µM]	relative IC50 (T-47D [15]; 4-OH-tamoxifen in medium 1 µM) [µM]	relative IC50 (MCF-7 [16]; 4-OH-tamoxifen in medium 0 µM) [µM]	relative IC50 (MCF-7 [16]; 4-OH-tamoxifen in medium 1 µM) [µM]	relative IC50 (T-47D Tam1 [17]) [µM]	relative IC50 (T-47D Tam2 [19]) [µM]	drug sensitivity score (ZR-75-1 Tam2 [1])	drug sensitivity score (BT-474 Tam2 [2])	drug sensitivity score (BT-474 [3]; 4-OH-tamoxifen in medium 0 µM)	drug sensitivity score (BT-474 [3]; 4-OH-tamoxifen in medium 1 µM)	drug sensitivity score (BT-474 Tam1 [4])	drug sensitivity score (T-47D [5]; 4-OH-tamoxifen in medium 0 µM)	drug sensitivity score (T-47D [5]; 4-OH-tamoxifen in medium 1 µM)	drug sensitivity score (MCF-7 [6]; 4-OH-tamoxifen in medium 0 µM)	drug sensitivity score (MCF-7 [6]; 4-OH-tamoxifen in medium 1 µM)	drug sensitivity score (T-47D Tam1 [7])	drug sensitivity score (MCF-7 Tam1)	drug sensitivity score (ZR-75-1 Tam1 [8])	drug sensitivity score (T-47D Tam2 [9])	drug sensitivity score (ZR-75-1 [10]; 4-OH-tamoxifen in medium 0 µM)	drug sensitivity score (ZR-75-1 [10]; 4-OH-tamoxifen in medium 1 µM)	relative IC50 (ZR-75-1 Tam2 [11]) [µM]	relative IC50 (ZR-75-1 Tam1 [18]) [µM]	relative IC50 (ZR-75-1 [20]; 4-OH-tamoxifen in medium 0 µM) [µM]	relative IC50 (ZR-75-1 [20]; 4-OH-tamoxifen in medium 1 µM) [µM]
CN(C)C[C@@H]1CCn2cc(c3ccccc32)C2=C(C(=O)NC2=O)c2cn(c3ccccc23)CCO1	2.61	3.26	1.86	1.59	1.54	2.78	2.35	2.94	1.43	2.53	4.71	6.47	4.1	8.42	9.22	6.79	6.1	7.13	4.11	6.85	1.31	3.13	4.71	4.14	6.47	0.942	1.4	1.32	1.56
Cn1cc(CNCC2CCN(c3ncc(C(=O)NO)cn3)CC2)c2ccccc21	0.0149	0.0216	0.00856	0.0145	0.0435	0.0132	0.0254	0.0347	0.0439	0.0913	9.02	20.9	17.3	24.5	21.3	15.4	21.5	16.4	15.2	13.5	1.39	10	8.78	9.45	5.44	0.0203	0.00619	0.0178	0.03
O=C(NC[C@H](O)CO)c1ccncc1Nc1ccc(I)cc1F	> 10		1.85			> 10	2.77		> 10	1.94	0	0	0.702	3.92	0.041	0	0	1.94	1.22	0	0.0844	0	2.47	0	0	> 10	> 10	> 10	
O=C(/C=C/c1cccc(S(=O)(=O)Nc2ccccc2)c1)NO [Belinostat  (PXD101)]	0.87	0.547	0.354	0.958	0.795	0.857	0.363	0.554	1.26	1.18	6.02	9.18	12.8	16.8	10.5	12	11.9	14.7	12.7	9.66	2.18	4.54	7.43	4.2	3.84	0.833	0.964	0.791	1.2

Now from value to compound, other results behind:

relative IC50 (BT-474 Tam2 [12]) [µM]	relative IC50 (BT-474 [13]; 4-OH-tamoxifen in medium 0 µM) [µM]	relative IC50 (BT-474 [13]; 4-OH-tamoxifen in medium 1 µM) [µM]	relative IC50 (BT-474 Tam1 [14]) [µM]	relative IC50 (T-47D [15]; 4-OH-tamoxifen in medium 0 µM) [µM]	relative IC50 (T-47D [15]; 4-OH-tamoxifen in medium 1 µM) [µM]	relative IC50 (MCF-7 [16]; 4-OH-tamoxifen in medium 0 µM) [µM]	relative IC50 (MCF-7 [16]; 4-OH-tamoxifen in medium 1 µM) [µM]	relative IC50 (T-47D Tam1 [17]) [µM]	relative IC50 (T-47D Tam2 [19]) [µM]	SMILES	drug sensitivity score (ZR-75-1 Tam2 [1])	drug sensitivity score (BT-474 Tam2 [2])	drug sensitivity score (BT-474 [3]; 4-OH-tamoxifen in medium 0 µM)	drug sensitivity score (BT-474 [3]; 4-OH-tamoxifen in medium 1 µM)	drug sensitivity score (BT-474 Tam1 [4])	drug sensitivity score (T-47D [5]; 4-OH-tamoxifen in medium 0 µM)	drug sensitivity score (T-47D [5]; 4-OH-tamoxifen in medium 1 µM)	drug sensitivity score (MCF-7 [6]; 4-OH-tamoxifen in medium 0 µM)	drug sensitivity score (MCF-7 [6]; 4-OH-tamoxifen in medium 1 µM)	drug sensitivity score (T-47D Tam1 [7])	drug sensitivity score (MCF-7 Tam1)	drug sensitivity score (ZR-75-1 Tam1 [8])	drug sensitivity score (T-47D Tam2 [9])	drug sensitivity score (ZR-75-1 [10]; 4-OH-tamoxifen in medium 0 µM)	drug sensitivity score (ZR-75-1 [10]; 4-OH-tamoxifen in medium 1 µM)	relative IC50 (ZR-75-1 Tam2 [11]) [µM]	relative IC50 (ZR-75-1 Tam1 [18]) [µM]	relative IC50 (ZR-75-1 [20]; 4-OH-tamoxifen in medium 0 µM) [µM]	relative IC50 (ZR-75-1 [20]; 4-OH-tamoxifen in medium 1 µM) [µM]
1.73		2.75	1.92	3.59		4.19	3.25	1.17	2	N#Cc1ccc(COC[C@H]2O[C@@H](n3c(NCc4ccc(Cl)c(Cl)c4)nc4c(N)ncnc43)[C@H](O)[C@@H]2O)cc1	2.56	3.17	0.615	4.11	3.95	1.88	1.02	1.74	2.54	5.15	0.584	2.54	2.46	4.24	4.03	3.35	3	2.07	1.87
> 10		3.45						1.05	0.821	COc1cc(Nc2ncc3c(n2)-c2ccc(Cl)cc2C(c2c(F)cccc2OC)=NC3)ccc1C(=O)O [Alisertib (MLN8237)]	0	0	0.464	1.48	0.0274	3.12	0.856	0.284	0	3.59	0.522	0	4.18	0	0	> 10	> 10	> 10	
0.0569	0.0753	0.049	0.0354	0.346	0.359	0.11	0.409	0.175	0.284	COc1c(C)cnc(Cn2cnc3c(Cl)nc(N)nc32)c1C [BIIB021]	5.51	22	14.6	22.8	22	11.6	9.03	13.9	7.58	9.86	2.87	5.21	8.67	4.41	4.44	0.499	0.557	0.477	0.698
0.0186	0.0313	0.0124	0.0117	1.23		1.29	1.64	0.513	1.58	C=CC(=O)Nc1cc2c(Nc3ccc(F)c(Cl)c3)ncnc2cc1OCCCN1CCOCC1 [Canertinib]	2.58	31.6	24.8	33.6	34.2	3.92	0.761	6.68	6.46	6.06	1.4	2.99	5.77	3	3.11	2.78	1.74	2.09	1.51
